Assay results as given in patent publication US20260183350A1, “ANTIBIOTIC-RESISTANT BACTERIA” (priority 2022, published 2026).

Assays:
faecal microbiota [1] = assay: Faecal batch culture with antibiotics promoting CRE colonisation: 16S rRNA gene sequencing and qPCR; type: cell-based, human; settings: 11 healthy donors, antibiotic at faecal concentration, 24 hours anaerobic
Description: (§1) The inventors performed faecal culture experiments to measure the effects of eight broad-spectrum antibiotics on the faecal microbiota collected from 11 healthy human donors. Faecal culture experiments were performed under anaerobic conditions using a complex gut growth medium that was designed to mimic the nutrients found in the human distal gut (McDonald, J. A. et al. Evaluation of microbial community reproducibility, stability and composition in a human distal gut chemostat model. J. Microbiol. Methods 95, 167-174 (2013)). […] Moon, Y. S., Chung, K. C. & Gill, M. A. Pharmacokinetics of meropenem in animals, healthy volunteers, and patients. Clin Infect Dis 24, S249-S255 (1997). Kager, L., Brismar, B., Malmborg, A. S. & Nord, C. E. Imipenem concentrations in colorectal surgery and impact on the colonic microflora. Antimicrob Agents Chemother 33, 204-8 (1989). Pletz, M. et al. Ertapenem pharmacokinetics and impact on intestinal microflora, in comparison to those of ceftriaxone, after multiple dosing in male and female volunteers. Antimicrob Agents Chemother 48, 3765-72 (2004). Nord, C. E., Brismar, B., Kasholm-Tengve, B. & Tunevall, G. Effect of piperacillin/tazobactam treatment on human bowel microflora. J Antimicrob Chemother 31, 61-5 (1993). […] Antimicrob Agents Chemother 63, 2244 (2019). Pessôa de Menezes e Silva, C H. Elaboration and evaluation of a new screening medium for detection and presumptive identification of extended-spectrum beta-lactamase-producing organisms (ESBL). Braz J Microbiol 31, 271-274 (2000). Brismar, B., Edlund, C., Malmborg, A. S. & Nord, C. […] Antimicrob Agents Chemother 34, 481-3 (1990)). Cultures were incubated anaerobically at 37° C. for 24 hours. Samples were analysed by ^1H-NMR spectroscopy (for nutrient and metabolite profiling) and […] rRNA gene sequencing with 16S rRNA gene qPCR (for bacterial composition and biomass) (McDonald, J. A. K. et a/. Inhibiting Growth of Clostridioides difficile by Restoring Valerate, Produced by the Intestinal Microbiota. Gastroenterology 155, 1495-1507 (2018)).

faecal microbiota [2] = assay: Faecal batch culture with antibiotics promoting CRE colonisation: 1H-NMR of nutrients and metabolites; type: cell-based, human; settings: 11 healthy donors, antibiotic at faecal concentration, 24 hours anaerobic
Description: as §1
Supernatants were prepared from faeces by vortexing 300 mg of faeces in 900 μl of HPLC-grade water for 10 minutes at 3000 rpm followed by centrifugation at 17,000×g for 10 minutes at 4° C. Supernatants were prepared from faecal culture samples by centrifugation at 17,000×g for 10 minutes at 4° C. Supernatants were frozen at −80° C. until they were ready for analysis.
^1H-NMR spectroscopy was performed as previously described (McDonald, J. A. K. et al. Inhibiting Growth of Clostridioides difficile by Restoring Valerate, Produced by the Intestinal Microbiota. Gastroenterology 155, 1495-1507 (2018)). Briefly, sample supernatants were randomized and defrosted at room temperature for 1 hour. Sample supernatants were then centrifuged for 10 min at 17 000×g and 4° C. The pellet was discarded and 400 μl of supernatant was added to 250 μl NMR buffer (28.85 g Na2HPO4, 5.25 g NaH2PO4, 1 mM TSP, 3 mM NaN3, deuterium oxide to 1 L, pH 7.4). 600 μl of sample was used to fill each 5 mm NMR tube to be loaded into the SampleJet system.
^1H-NMR spectroscopy was performed using the Bruker AVANCE III HD 800 MHz spectrometer (Bruker Bio-Spin, Rheinstetten, Germany). 1D spectra (a standard NOESYGPPR1D pulse sequence (RD-90°-t1-90°-tm-90°-ACQ)) as well as 2D spectra (standard 2D JRESGPPRQF pulse sequence) were acquired. A recycle delay of 4 seconds and mixing time of 100 ms was used. The 90° pulse length was approximately 10 μs and 32 scans were recorded.
NMR spectra were imported into MATLAB r2019b (The Mathworks, USA) using an in-house script. Spectra were aligned and the water (4.6-5 ppm) and TSP (−0.2-0.2 ppm) peaks were cut. Compounds were identified by comparison to spectral databases in Chenomx NMR Suite (Chenomx, Canada). Representative peaks were integrated for quantification of compounds.

| Compound | Change in abundance of bacterial families relative to antibiotic-naive faecal cultures (faecal microbiota [1]) | Change in butyrate concentration in faecal cultures (faecal microbiota [2]) |
| --- | --- | --- |
| piperacillin/tazobactam [TZP] | decreased the abundance of Bifidobacteriaceae and Bacteroidaceae | decreased |
| CC(C)(O/N=C(\C(=O)N[C@@H]1C(=O)N2C(C(=O)[O-])=C(C[n+]3ccccc3)CS[C@H]12)c1csc(N)n1)C(=O)O [CAZ, ceftazidime] | decreased the abundance of Bifidobacteriaceae | increased |
| CO/N=C(\C(=O)N[C@@H]1C(=O)N2C(C(=O)O)=C(COC(C)=O)CS[C@H]12)c1csc(N)n1 [CTX, cefotaxime] | decreased the abundance of Bifidobacteriaceae | increased |
| CO/N=C(\C(=O)N[C@@H]1C(=O)N2C(C(=O)O)=C(CSc3nc(=O)c(=O)[nH]n3C)CS[C@H]12)c1csc(N)n1 [CRO, ceftriaxone] | decreased the abundance of Bifidobacteriaceae | decreased |
